The subject of this test is KB cells. Kind of test: Growth Inhibition Action on KB cell (in vitro). The format is cell-based. The conditions noted are these: Homo sapiens, 72 hours incubation, MTT absorbance, final DMSO 0.5%, read-out: IC50 (concentration of 50% growth inhibition) on KB cells. As for the experimental part:
Experiment: Growth Inhibition Action on KB cell (in vitro)
1×10^3 of KB cells/0.1 ml of a cell suspension in MEM medium containing 10% fetal bovine serum was placed in each well of a plate with 96 flat bottom wells, and incubated for 24 hours. This was dissolved in dimethylsulfoxide, and 100 μl of a solution (final concentration of dimethylsulfoxide: 0.5%) of a test compound diluted with the medium was added thereto, followed by incubation for 72 hours. After incubation, 4,5-dimethylthiazol-2-yl-2,5-diphenyltetrazolium bromide reagent (a color reagent) was added, and the mixture was further incubated for 4 hours.
100 μl of the medium (final concentration of dimethylsulfoxide:0.5%) was added as a control, and incubated in a similar manner. After incubation, the medium was removed, and the cells were dissolved in 150 μl of dimethylsulfoxide and the absorbance was determined. The ratio of the absorbance of the group treated with the test compound to that of the control group was determined, and the concentration of 50% growth inhibition (IC50) was calculated.

The record followed here is patent US5712263A, “Steroid derivatives” (Taisho Pharmaceutical Co., Ltd., priority 1993, dated 1998).

Converted amounts (≈) assume the structure as drawn.

`CC(C)C[C@@H](O)[C@@]1([C@H]2CC[C@H]3[C@@H]4CC[C@H]5CC(=O)CC[C@]5(C)[C@H]4C[C@@H](O)[C@]23C)CO1` [Compound (12a)]: the IC50 stood at 0.0965 µg/mL (≈ 0.231 µM).
